Reference: PMC5538625, “Perception of root‐active CLE peptides requires CORYNE function in the phloem vasculature” (EMBO Reports, 2017)
Read-outs that look alike come from different tables or passages of the source. Where no end group is shown, it is not given here.

Assays:
[1] = test system: Arabidopsis Col-0 seedlings (primary root); conditions: cited from earlier work
Description: page 3: EMBO reports - Peer Review Process File - EMBO-2016-43535 including a report from the same group (Kinoshita et al, 2007 Plant Cell Physiol 48:1821; Whitford et al, 2008 PNAS 105:18625; Depuydt et al. 2013 PNAS 110:7074) where CLE6 peptides exert the root shortening activity only at a very high concentration (10 µM). Results on CLE8, CLE16, CLE17, CLE20 and CLE22 are also different from the previous report (Depuydt et al. 2013). […] Please indicate the meaning of the asterisks in column "Col-0" in Figure 2B, "***a" and "***b" in Figure 2C, describe all the peptide sequences used in this study and re-confirm if the results are correct and reproducible. The details are the following.” ….and subordinate comments.

BAM3 = conditions: ref Shinohara et al., 2012; cited from earlier work
Source text: page 6: EMBO reports - Peer Review Process File - EMBO-2016-43535 of both. […] Or alternatively to measure mRNA level by qRT-PCR. This will at least resolve if it's transcriptional regulation or not. 3. One way to bolster their statement about CRN's BAM3 regulation would be to do a simple complementation. If authors' already generated CRN::CRN in crn mutant background, we highly recommend that the authors use this line as well. BAM3-BAM3-CITRINE construct are introduced ...

[2] = test system: bam3 mutant seedlings (primary root); conditions: compared with WT; ref Depuydt et al., 2013; cited from earlier work
Source text: (§1) “6. We'd also like the authors to answer or discuss following aspects in the discussion part.” “6-1. How do you explain the insensitivity of crn to all CLE peptides? Does it control expression of CLV as well?” At this point we can only speculate on this. As we highlight in the discussion, maybe the expression of other, yet to be identified CLE receptors in the root also depends on CR ...

BAM1 = conditions: CLE9gp arabinosylated, CLE9p non-arabinosylated; ref Shinohara et al., 2012; cited from earlier work
Source text: as §1

[3] = target: IDA peptide (Arabidopsis thaliana) (UniProt Q8LAD7); conditions: cited from earlier work
[4] = target: IDA peptide (Arabidopsis thaliana) (UniProt Q8LAD7); conditions: cited from earlier work; remark: listed apart in the source
[5] = test system: Arabidopsis Col-0 seedlings (primary root); experiment: Root growth assay, wild type (Col-0); format: in vivo, Arabidopsis thaliana; conditions: 50 nM peptide, 9-day-old seedlings, primary root length, n ≥ 12
Description: Plant tissue culture, plant transformation, and common molecular biology procedures such as genomic DNA isolation, genotyping, sequencing, and peptide or inhibitor treatments were performed according to standard procedures as previously described 9, 19, 44, 65.
All mutant and transgenic lines were in the Arabidopsis Columbia‐0 (Col‐0) background. The following previously described mutant alleles were used throughout: brx‐2, bam3‐2, brx‐2 bam3, clv2‐1, serk1‐1 and serk1‐3, serk2‐1, serk3‐1, serk4‐1, serk5‐1 9, 47, 59, 66, 67, 68. The crn loss‐of‐function mutant allele (crn‐10) carries a single nucleotide insertion in front of the 7th codon, which leads to a frameshift and three subsequent premature stop codons after amino acid 10 52.

Sequence of IDA peptide (Arabidopsis thaliana) (Q8LAD7 27-77): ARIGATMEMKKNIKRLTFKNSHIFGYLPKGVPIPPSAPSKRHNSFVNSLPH
Sequence of HAESA (P47735 15-621): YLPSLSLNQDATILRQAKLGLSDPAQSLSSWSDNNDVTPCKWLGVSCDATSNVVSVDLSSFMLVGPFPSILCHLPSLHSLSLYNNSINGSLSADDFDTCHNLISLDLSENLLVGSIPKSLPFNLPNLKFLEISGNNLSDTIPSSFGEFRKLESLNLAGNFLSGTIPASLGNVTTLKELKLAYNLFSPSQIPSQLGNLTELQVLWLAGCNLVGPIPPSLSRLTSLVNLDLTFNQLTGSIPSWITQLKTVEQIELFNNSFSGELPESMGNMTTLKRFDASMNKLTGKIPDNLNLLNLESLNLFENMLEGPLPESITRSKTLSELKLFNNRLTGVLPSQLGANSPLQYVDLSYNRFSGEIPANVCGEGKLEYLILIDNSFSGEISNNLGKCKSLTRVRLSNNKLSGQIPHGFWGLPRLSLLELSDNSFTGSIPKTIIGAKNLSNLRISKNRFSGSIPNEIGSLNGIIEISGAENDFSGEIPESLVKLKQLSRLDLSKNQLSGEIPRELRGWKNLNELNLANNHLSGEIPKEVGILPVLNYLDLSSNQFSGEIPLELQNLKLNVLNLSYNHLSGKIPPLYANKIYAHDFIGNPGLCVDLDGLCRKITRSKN

CLE6: CLE6 peptide (earlier reports; not assayed) (RVSPGGPDPQHH; ends and bridges not checked; UniProt Q8S8N3 70-81, looked up)
concentration needed for root shortening activity ([1]; referee's comment, ref Kinoshita et al, 2007, Whitford et al, 2008, Depuydt et al. 2013): 10 µM
root growth suppression in words ([1]; tissue culture, nM to low μM concentrations): not root-active

CLE9: CLE9 (earlier reports) (RLVPSGPNPLHN; ends and bridges not checked; UniProt Q9FZE4 109-120, looked up)
binding to BAM3, in words (BAM3): BAM3 has been shown to have a binding activity to CLE9
root response of bam3 mutants [2]: not suppressed in bam3 mutant plants

CLE9gp: arabinosylated CLE9 (RLVPSGPNPLHN; ends and bridges not checked; also: arabinosylated, place not given here; UniProt Q9FZE4 109-120, looked up)
Kd (BAM1): 0.0022 µM

CLE9p: non-arabinosylated CLE9 (RLVPSGPNPLHN; ends and bridges not checked; UniProt Q9FZE4 109-120, looked up)
Kd (BAM1): 0.0018 µM

HAESA (from UniProt P47735)
Kd [3]: 0.35 µM
Kd [4]: 20 µM

RKVKTGSNPLHN [CLE20, CLE20: …]
impact on root growth [5]: significant, reproducible impact on root growth

RKVPNGPDPIHN [CLE25, CLE25: …]
impact on root growth [5]: significant, reproducible impact on root growth

RLVHTGPNPLHN [CLE16, CLE16: …]
impact on root growth [5]: significant, reproducible impact on root growth

RLVPKGPNPLHN [CLE14, CLE14: …]
impact on root growth [5]: significant, reproducible impact on root growth

RLVPSGPNPLHH [CLE13, CLE13: …]
impact on root growth [5]: significant, reproducible impact on root growth

RLVPSGPNPLHN [CLE9/10, CLE9/10: …]
impact on root growth [5]: significant, reproducible impact on root growth
